Assay results published in PubChem BioAssay (NCI).
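Briefly, cells in 96-well plates were exposed to five compound concentrations for 48 h, and endpoints were estimated by linear interpolation. Here, GI50 denotes the concentration required for 50% inhibition of growth. TGI is the concentration that stops growth completely.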

Legend:
Experiment in all cases: growth of human tumour cells (NCI), 48 h
786-0 renal = system: 786-0 renal
A498 renal = system: A498 renal
ACHN renal = system: ACHN renal
CCRF-CEM leukemia = system: CCRF-CEM leukemia
COLO 205 colon = system: COLO 205 colon
DU-145 prostate = system: DU-145 prostate
HCC-2998 colon = system: HCC-2998 colon
HCT-116 colon = system: HCT-116 colon
HCT-15 colon = system: HCT-15 colon
HL-60(TB) leukemia = system: HL-60(TB) leukemia
HOP-62 NSCLC = system: HOP-62 NSCLC
HS 578T breast = system: HS 578T breast
HT29 colon = system: HT29 colon
IGROV1 ovarian = system: IGROV1 ovarian
K-562 leukemia = system: K-562 leukemia
KM12 colon = system: KM12 colon
LOX IMVI melanoma = system: LOX IMVI melanoma
M14 melanoma = system: M14 melanoma
MALME-3M melanoma = system: MALME-3M melanoma
MCF7 breast = system: MCF7 breast
MDA-MB-231 breast = system: MDA-MB-231 breast
MDA-MB-435 = system: MDA-MB-435
MDA-N = system: MDA-N
MOLT-4 leukemia = system: MOLT-4 leukemia
NCI-H226 lung = system: NCI-H226 lung
NCI-H23 lung = system: NCI-H23 lung
NCI-H460 lung = system: NCI-H460 lung
NCI-H522 lung = system: NCI-H522 lung
NCI/ADR-RES ovarian = system: NCI/ADR-RES ovarian
OVCAR-3 ovarian = system: OVCAR-3 ovarian
OVCAR-4 ovarian = system: OVCAR-4 ovarian
OVCAR-5 ovarian = system: OVCAR-5 ovarian
OVCAR-8 ovarian = system: OVCAR-8 ovarian
PC-3 prostate = system: PC-3 prostate
RPMI-8226 leukemia = system: RPMI-8226 leukemia
RXF 393 renal = system: RXF 393 renal
SF-268 CNS = system: SF-268 CNS
SF-295 CNS = system: SF-295 CNS
SF-539 CNS = system: SF-539 CNS
SK-MEL-2 melanoma = system: SK-MEL-2 melanoma
SK-MEL-28 melanoma = system: SK-MEL-28 melanoma
SK-OV-3 ovarian = system: SK-OV-3 ovarian
SN12C renal = system: SN12C renal
SNB-19 CNS = system: SNB-19 CNS
SNB-75 CNS = system: SNB-75 CNS
SR leukemia = system: SR leukemia
SW-620 colon = system: SW-620 colon
T-47D breast = system: T-47D breast
TK-10 renal = system: TK-10 renal
U251 CNS = system: U251 CNS
UACC-257 melanoma = system: UACC-257 melanoma
UACC-62 melanoma = system: UACC-62 melanoma
UO-31 renal = system: UO-31 renal
A549 NSCLC = system: A549 NSCLC
CAKI-1 renal = system: CAKI-1 renal
EKVX NSCLC = system: EKVX NSCLC
HOP-92 NSCLC = system: HOP-92 NSCLC
SK-MEL-5 melanoma = system: SK-MEL-5 melanoma

CCC1=C(C)c2cc3[n-]c(cc4nc(c(C=O)c5[n-]c(cc1n2)c(C)c5CC)C(C)=C4CC)c(C)c3CC.[Ni+2] was tested, and the GI50 (786-0 renal) was > 100 µM, the TGI (786-0 renal) was > 100 µM and the GI50 (A498 renal) was > 100 µM. For the same molecule, the TGI (A498 renal) was > 100 µM, the GI50 (ACHN renal) was > 100 µM and the TGI (ACHN renal) was > 100 µM. For the same molecule, the GI50 (CCRF-CEM leukemia) was > 100 µM, the TGI (CCRF-CEM leukemia) was > 100 µM and the GI50 (COLO 205 colon) was > 100 µM. For the same molecule, the TGI (COLO 205 colon) was > 100 µM, the GI50 (DU-145 prostate) was > 100 µM and the TGI (DU-145 prostate) was > 100 µM. For the same molecule, the GI50 (HCC-2998 colon) was > 100 µM, the TGI (HCC-2998 colon) was > 100 µM and the GI50 (HCT-116 colon) was > 100 µM. For the same molecule, the TGI (HCT-116 colon) was > 100 µM, the GI50 (HCT-15 colon) was > 100 µM and the TGI (HCT-15 colon) was > 100 µM. The GI50 (HL-60(TB) leukemia) was > 100 µM, the TGI (HL-60(TB) leukemia) was > 100 µM and the GI50 (HOP-62 NSCLC) was > 100 µM. The TGI (HOP-62 NSCLC) was > 100 µM, the GI50 (HS 578T breast) was > 100 µM and the TGI (HS 578T breast) was > 100 µM. For the same molecule, the GI50 (HT29 colon) was > 100 µM, the TGI (HT29 colon) was > 100 µM and the GI50 (IGROV1 ovarian) was > 100 µM. For the same molecule, the TGI (IGROV1 ovarian) was > 100 µM, the GI50 (K-562 leukemia) was > 100 µM and the TGI (K-562 leukemia) was > 100 µM. For the same molecule, the GI50 (KM12 colon) was > 100 µM, the TGI (KM12 colon) was > 100 µM and the GI50 (LOX IMVI melanoma) was > 100 µM. For the same molecule, the TGI (LOX IMVI melanoma) was > 100 µM, the GI50 (M14 melanoma) was > 100 µM and the TGI (M14 melanoma) was > 100 µM. For the same molecule, the GI50 (MALME-3M melanoma) was > 100 µM, the TGI (MALME-3M melanoma) was > 100 µM and the GI50 (MCF7 breast) was > 100 µM. For the same molecule, the TGI (MCF7 breast) was > 100 µM, the GI50 (MDA-MB-231 breast) was > 100 µM and the TGI (MDA-MB-231 breast) was > 100 µM. For the same molecule, the GI50 (MDA-MB-435) was > 100 µM, the TGI (MDA-MB-435) was > 100 µM and the GI50 (MDA-N) was > 100 µM. The TGI (MDA-N) was > 100 µM, the GI50 (MOLT-4 leukemia) was > 100 µM and the TGI (MOLT-4 leukemia) was > 100 µM. The GI50 (NCI-H226 lung) was > 100 µM, the TGI (NCI-H226 lung) was > 100 µM and the GI50 (NCI-H23 lung) was > 100 µM. The TGI (NCI-H23 lung) was > 100 µM, the GI50 (NCI-H460 lung) was > 100 µM and the TGI (NCI-H460 lung) was > 100 µM. For the same molecule, the GI50 (NCI-H522 lung) was > 100 µM, the TGI (NCI-H522 lung) was > 100 µM and the GI50 (NCI/ADR-RES ovarian) was > 100 µM. The TGI (NCI/ADR-RES ovarian) was > 100 µM, the GI50 (OVCAR-3 ovarian) was > 100 µM and the TGI (OVCAR-3 ovarian) was > 100 µM. For the same molecule, the GI50 (OVCAR-4 ovarian) was > 100 µM, the TGI (OVCAR-4 ovarian) was > 100 µM and the GI50 (OVCAR-5 ovarian) was > 100 µM. For the same molecule, the TGI (OVCAR-5 ovarian) was > 100 µM, the GI50 (OVCAR-8 ovarian) was > 100 µM and the TGI (OVCAR-8 ovarian) was > 100 µM. The GI50 (PC-3 prostate) was > 100 µM, the TGI (PC-3 prostate) was > 100 µM and the GI50 (RPMI-8226 leukemia) was > 100 µM. The TGI (RPMI-8226 leukemia) was > 100 µM, the GI50 (RXF 393 renal) was > 100 µM and the TGI (RXF 393 renal) was > 100 µM. For the same molecule, the GI50 (SF-268 CNS) was > 100 µM, the TGI (SF-268 CNS) was > 100 µM and the GI50 (SF-295 CNS) was > 100 µM. The TGI (SF-295 CNS) was > 100 µM, the GI50 (SF-539 CNS) was > 100 µM and the TGI (SF-539 CNS) was > 100 µM. For the same molecule, the GI50 (SK-MEL-2 melanoma) was > 100 µM, the TGI (SK-MEL-2 melanoma) was > 100 µM and the GI50 (SK-MEL-28 melanoma) was > 100 µM. The TGI (SK-MEL-28 melanoma) was > 100 µM, the GI50 (SK-OV-3 ovarian) was > 100 µM and the TGI (SK-OV-3 ovarian) was > 100 µM. For the same molecule, the GI50 (SN12C renal) was > 100 µM, the TGI (SN12C renal) was > 100 µM and the GI50 (SNB-19 CNS) was > 100 µM. The TGI (SNB-19 CNS) was > 100 µM, the GI50 (SNB-75 CNS) was 93.6 µM and the TGI (SNB-75 CNS) was > 100 µM. The GI50 (SR leukemia) was 0.022 µM, the TGI (SR leukemia) was > 100 µM and the GI50 (SW-620 colon) was > 100 µM. For the same molecule, the TGI (SW-620 colon) was > 100 µM, the GI50 (T-47D breast) was > 100 µM and the TGI (T-47D breast) was > 100 µM. For the same molecule, the GI50 (TK-10 renal) was > 100 µM, the TGI (TK-10 renal) was > 100 µM and the GI50 (U251 CNS) was > 100 µM. The TGI (U251 CNS) was > 100 µM, the GI50 (UACC-257 melanoma) was > 100 µM and the TGI (UACC-257 melanoma) was > 100 µM. The GI50 (UACC-62 melanoma) was > 100 µM, the TGI (UACC-62 melanoma) was > 100 µM and the GI50 (UO-31 renal) was > 100 µM. The TGI (UO-31 renal) was > 100 µM.
In the case of Cc1occc(=O)c1O, the TGI (786-0 renal) is reported as > 100 µM, the TGI (A549 NSCLC) is reported as > 100 µM and the TGI (ACHN renal) is reported as > 100 µM. The TGI (CAKI-1 renal) was > 100 µM, the TGI (CCRF-CEM leukemia) was > 100 µM and the TGI (COLO 205 colon) was > 100 µM. The TGI (DU-145 prostate) was > 100 µM, the TGI (EKVX NSCLC) was > 100 µM and the TGI (HCC-2998 colon) was > 100 µM. For the same molecule, the TGI (HCT-116 colon) was > 100 µM, the TGI (HCT-15 colon) was 28.7 µM and the TGI (HL-60(TB) leukemia) was > 100 µM. For the same molecule, the TGI (HOP-62 NSCLC) was > 100 µM, the TGI (HOP-92 NSCLC) was > 100 µM and the TGI (HS 578T breast) was > 100 µM. The TGI (HT29 colon) was > 100 µM, the TGI (IGROV1 ovarian) was > 100 µM and the TGI (K-562 leukemia) was > 100 µM. For the same molecule, the TGI (KM12 colon) was > 100 µM, the TGI (LOX IMVI melanoma) was > 100 µM and the TGI (M14 melanoma) was > 100 µM. The TGI (MALME-3M melanoma) was > 100 µM, the TGI (MCF7 breast) was > 100 µM and the TGI (MDA-MB-231 breast) was 16.4 µM. For the same molecule, the TGI (MDA-MB-435) was > 100 µM, the TGI (MDA-N) was > 100 µM and the TGI (MOLT-4 leukemia) was > 100 µM. For the same molecule, the TGI (NCI-H226 lung) was > 100 µM, the TGI (NCI-H23 lung) was > 100 µM and the TGI (NCI-H460 lung) was > 100 µM. For the same molecule, the TGI (NCI-H522 lung) was > 100 µM, the TGI (NCI/ADR-RES ovarian) was > 100 µM and the TGI (OVCAR-3 ovarian) was > 100 µM. For the same molecule, the TGI (OVCAR-4 ovarian) was > 100 µM, the TGI (OVCAR-5 ovarian) was > 100 µM and the TGI (OVCAR-8 ovarian) was > 100 µM. The TGI (PC-3 prostate) was > 100 µM, the TGI (RPMI-8226 leukemia) was > 100 µM and the TGI (SF-268 CNS) was > 100 µM. For the same molecule, the TGI (SF-295 CNS) was > 100 µM, the TGI (SF-539 CNS) was > 100 µM and the TGI (SK-MEL-2 melanoma) was > 100 µM. For the same molecule, the TGI (SK-MEL-28 melanoma) was > 100 µM, the TGI (SK-MEL-5 melanoma) was > 100 µM and the TGI (SN12C renal) was 24.8 µM. For the same molecule, the TGI (SNB-19 CNS) was > 100 µM, the TGI (SNB-75 CNS) was > 100 µM and the TGI (SR leukemia) was > 100 µM. For the same molecule, the TGI (SW-620 colon) was > 100 µM, the TGI (T-47D breast) was > 100 µM and the TGI (TK-10 renal) was > 100 µM. The TGI (U251 CNS) was > 100 µM, the TGI (UACC-257 melanoma) was > 100 µM and the TGI (UO-31 renal) was > 100 µM.
